Test results reported in PMC3604040 (Biochemical pharmacology, 2013).
Each block holds one molecule with its values, some of them ahead of it.

Assays:
[1] = molecular target: CYP2D6 (Homo sapiens, UniProt P10635); conditions: recombinant CYP2D6, DFP pre-treated, PTI 2 to 200 µM, 1 h
[2] = PTI 10 mg/kg oral in corn oil, 3 h post-dosing
[3] = Metabolism and stability of PTI in mouse liver microsomes; format: in vitro ADME; conditions: 0.5 mg/ml protein
[4] = Metabolism and stability of PTI in human intestine microsomes; format: in vitro ADME; conditions: 0.25 mg/ml protein, 37°C
[5] = UDP-glucuronic acid, in the presence of DFP, 2 h
[6] = Metabolism and stability of PTI in rat liver microsomes; format: in vitro ADME; conditions: 0.5 mg/ml protein
[7] = Metabolism and stability of PTI in human lung microsomes; format: in vitro ADME; conditions: 0.25 mg/ml protein, 37°C
[8] = molecular target: CYP3A4 (Homo sapiens, UniProt P08684); conditions: recombinant CYP3A4, DFP pre-treated, PTI 2 to 200 µM, 1 h
[9] = Metabolism and stability of PTI in human kidney microsomes; format: in vitro ADME; conditions: 0.25 mg/ml protein, 37°C
[10] = Metabolism and stability of PTI in human liver microsomes; format: in vitro ADME; conditions: for metabolite formation in PTI-treated HLMs in the absence of NADPH: 20 min after initiation of the reaction
[11] = molecular target: T1, UDP-glucuronosyltransferase (UGT 2B7) (Homo sapiens, UniProt P16662)
T1 sequence (P16662 24-529): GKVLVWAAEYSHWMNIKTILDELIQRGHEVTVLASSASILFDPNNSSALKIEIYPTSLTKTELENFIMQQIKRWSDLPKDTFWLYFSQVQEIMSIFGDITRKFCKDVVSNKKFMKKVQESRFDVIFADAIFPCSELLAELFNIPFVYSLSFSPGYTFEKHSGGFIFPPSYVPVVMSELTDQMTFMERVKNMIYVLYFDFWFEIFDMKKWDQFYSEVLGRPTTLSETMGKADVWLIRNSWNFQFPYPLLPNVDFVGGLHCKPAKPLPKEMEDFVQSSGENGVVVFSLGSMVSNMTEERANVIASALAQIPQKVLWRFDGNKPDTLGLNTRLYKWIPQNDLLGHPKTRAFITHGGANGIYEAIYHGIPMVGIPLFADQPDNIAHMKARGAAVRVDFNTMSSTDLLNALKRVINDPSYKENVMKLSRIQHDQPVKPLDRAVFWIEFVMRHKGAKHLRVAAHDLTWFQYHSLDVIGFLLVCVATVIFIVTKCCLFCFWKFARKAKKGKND

[12] = 37°C, NADPH-regenerating solution
[13] = twenty minutes after initiation, PTI 75 µM

CYP2D6, sequence (P10635 whole entry): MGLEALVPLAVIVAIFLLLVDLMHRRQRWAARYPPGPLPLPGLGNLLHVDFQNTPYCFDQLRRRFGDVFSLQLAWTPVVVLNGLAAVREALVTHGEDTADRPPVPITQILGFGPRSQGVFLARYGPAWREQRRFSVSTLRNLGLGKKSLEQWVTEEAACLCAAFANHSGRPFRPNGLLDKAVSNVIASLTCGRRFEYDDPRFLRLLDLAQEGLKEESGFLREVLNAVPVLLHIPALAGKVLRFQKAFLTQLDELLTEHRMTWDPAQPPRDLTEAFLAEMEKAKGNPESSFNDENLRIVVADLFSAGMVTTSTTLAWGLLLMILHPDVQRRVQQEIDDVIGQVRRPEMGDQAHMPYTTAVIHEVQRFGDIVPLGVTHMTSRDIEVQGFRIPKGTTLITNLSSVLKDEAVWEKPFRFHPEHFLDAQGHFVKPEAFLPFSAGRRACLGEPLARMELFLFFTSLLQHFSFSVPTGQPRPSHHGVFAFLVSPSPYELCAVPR
CYP3A4, sequence (P08684 whole entry): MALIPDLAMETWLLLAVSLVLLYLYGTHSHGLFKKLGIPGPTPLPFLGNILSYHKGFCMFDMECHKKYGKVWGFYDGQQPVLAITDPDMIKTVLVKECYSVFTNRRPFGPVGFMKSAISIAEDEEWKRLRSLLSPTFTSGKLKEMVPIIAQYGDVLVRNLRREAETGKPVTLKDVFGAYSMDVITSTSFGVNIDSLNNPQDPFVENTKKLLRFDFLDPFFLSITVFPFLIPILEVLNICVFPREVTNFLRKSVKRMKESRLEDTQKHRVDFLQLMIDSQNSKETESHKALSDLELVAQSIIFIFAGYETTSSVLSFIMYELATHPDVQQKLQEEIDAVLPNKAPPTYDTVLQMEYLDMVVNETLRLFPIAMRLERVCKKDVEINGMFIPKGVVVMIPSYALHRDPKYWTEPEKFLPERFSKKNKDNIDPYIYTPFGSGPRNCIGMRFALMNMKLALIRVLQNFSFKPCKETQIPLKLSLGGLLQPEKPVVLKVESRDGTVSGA

Compound: CCOP(=O)(OCC)OCCc1ccc(OC(=O)Cc2c(C)n(C(=O)c3ccc(Cl)cc3)c3ccc(OC)cc23)cc1 [PTI, Phospho-tyrosol-indomethacin]
- O-demethylation of PTI Vmax [1]: 70.0 pmol/min/ pmol CYP
- intact drug in rat plasma [2]: not detected
- CLint ([3]; 37°C): 172.4 mL/min/g
- t1/2 [3, 12]: 8.0 min
- PTI hydrolyzed to yield IND [3, 13]: 80%
- CLint [4]: 210.0 mL/min/g
- t1/2 ([4]; NADPH-regenerating solution): 13.2 min
- glucuronidation in HLMs [5]: not glucuronidated
- CLint ([6]; 37°C): 36.9 mL/min/g
- t1/2 [6, 12]: 37.6 min
- PTI hydrolyzed to yield IND [6, 13]: 22%
- CLint [7]: 8.0 mL/min/g
- t1/2 ([7]; NADPH-regenerating solution): 348.0 min
- O-demethylation of PTI Vmax [8]: 1.5 pmol/min/ pmol CYP
- CLint [9]: 35.9 mL/min/g
- t1/2 ([9]; NADPH-regenerating solution): 77.3 min
- CLint ([10]; human liver microsomes, 0.5 mg/ml protein, 37°C): 100.0 mL/min/g
- t1/2 ([10]; human liver microsomes, 0.5 mg/ml protein, 37°C, NADPH-regenerating solution): 13.9 min
- PTI hydrolyzed to yield IND ([10]; human liver microsomes, twenty minutes after initiation, PTI 75 µM, 0.5 mg/ml protein): 52%

Compound: COc1ccc2c(c1)c(CC(=O)O)c(C)n2C(=O)c1ccc(Cl)cc1 [IND, indomethacin, reference compound]
- glucuronidation by UGT 2B7 [11]: capable of catalyzing the glucuronidation of IND

- metabolite formation in PTI-treated HLMs in the absence of NADPH [10]: not detected
Compound: Cc1c(CC(=O)O)c2cc(O)ccc2n1C(=O)c1ccc(Cl)cc1 [demethyl-IND]

- metabolite formation in PTI-treated HLMs in the absence of NADPH [10]: detected
Compound: COc1ccc2[nH]c(C)c(CC(=O)O)c2c1 [debenzoyl-IND]
